This passage reports IC50 results from patent publication US20260242419A1, “A CYCLIC PEPTIDE FOR TRAPPING INTERLEUKIN-1 BETA” (Merck Sharp & Dohme LLC, priority 2023, published 2026).

Starred links: 1 amine or outer side, 2 acyl side, 3 side chain; linkers in the order of their positions; H or OH if unused. Non-standard residues stand in square brackets, D forms with d. Residues, ends and D or L forms follow the SMILES beside them. X1 = COc1ncc(-c2ccc(C[C@H]3CCN([*:1])[C@H]3C(=O)[*:2])cc2)cn1; X22 = Nc1ncc(-c2ccc(C[C@H]3CCN([*:1])[C@H]3C(=O)[*:2])cc2)cn1; X49 = Nc1cnc(-c2ccc(C[C@H]3CCN([*:1])[C@H]3C(=O)[*:2])cc2)cn1; X16 = Cn1cnc(-c2ccc(C[C@H]3CCN([*:1])[C@H]3C(=O)[*:2])cc2)c1; Trp(βS-Me,4-F) = C[C@@H](c1c[nH]c2cccc(F)c12)[C@H](N)C(=O)O; X15 = O=C([C@H]1[C@@H](Cc2ccc(-c3ccnnc3)cc2)CCN1[*:1])[*:2]; X33 = O=C([C@H]1[C@@H](Cc2ccc(-c3ccncc3)cc2)CCN1[*:1])[*:2]; X48 = O=C([C@H]1[C@@H](Cc2ccc(-c3cccnc3)cc2)CCN1[*:1])[*:2]; Bip(4'-COOH) = N[C@@H](Cc1ccc(-c2ccc(C(=O)O)cc2)cc1)C(=O)O; X18 = Cn1ccnc1-c1ccc(C[C@H]2CCN([*:1])[C@H]2C(=O)[*:2])cc1; X43 = Cc1nocc1-c1ccc(C[C@H]2CCN([*:1])[C@H]2C(=O)[*:2])cc1; X8 = O=C([C@H]1[C@@H](Cc2ccc(-c3ccccn3)cc2)CCN1[*:1])[*:2]; dPro(4R-Bzl(4-F)) = O=C(O)[C@H]1C[C@@H](Cc2ccc(F)cc2)CN1; Ala(pyrimidin-5-yl) = N[C@@H](Cc1cncnc1)C(=O)O; Phe(4-COOH) = N[C@@H](Cc1ccc(C(=O)O)cc1)C(=O)O; Pro(cis-4-F) = O=C(O)[C@@H]1C[C@H](F)CN1; 4Pal = N[C@@H](Cc1ccncc1)C(=O)O; αMeK = C[C@](N)(CCCCN)C(=O)O; Api = NC1(C(=O)O)CCNCC1; Dab = NCC[C@H](N)C(=O)O; Aib = CC(C)(N)C(=O)O

The term IC50 denotes the concentration at which inhibition is half-maximal.

In this test the target is T1, IL-1β (Homo sapiens, UniProt P01584).
T1 construct: purchased BioLegend 579404
T1 sequence (P01584 117-269): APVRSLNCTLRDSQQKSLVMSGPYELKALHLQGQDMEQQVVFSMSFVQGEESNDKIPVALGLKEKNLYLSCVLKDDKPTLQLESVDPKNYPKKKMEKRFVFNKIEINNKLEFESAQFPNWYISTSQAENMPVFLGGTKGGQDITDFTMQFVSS
Description: IL-6 assay in MRC5 cells: inhibition of IL-1β induced IL-6 secretion (AlphaLISA). It is filed as cell-based. The conditions noted are these: inhibition of IL-1β induced IL-6 secretion in MRC5 cells; read-out: MRC5 IC50. In outline:
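Compound was pre-incubated 1 h at ambient temperature with recombinant human IL-1β at 2λ EC80 before adding human lung fibroblast MRC5 cells (3000/well) in EMEM with 0.025% BSA. After overnight culture at 37 °C, 5% CO2, secreted IL-6 in conditioned medium was measured by AlphaLISA; IC50 from 4-parameter logistic fits.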
As to `C[C@@H](c1c[nH]c2cccc(F)c12)[C@@H]1NC(=O)[C@@H]2C[C@H](F)CN2C(=O)CNC(=O)[C@H](Cc2ccc(C(=O)O)cc2)NC(=O)[C@H](Cc2ccncc2)NC(=O)[C@H](Cc2ccc(-c3ccc(C(=O)O)cc3)cc2)NC(=O)[C@H]2[C@@H](Cc3ccc(-c4ccncc4)cc3)CCN2C(=O)CNC(=O)[C@H](CCN)NC(=O)[C@H](CCC(N)=O)NC(=O)[C@H](Cc2cncnc2)NC(=O)C(C)(C)NC(=O)[C@H](Cc2c[nH]c3ccccc23)NC(=O)[C@H](CCC(=O)O)NC(=O)C(C)(C)NC1=O` [Example 55] (cyclo([Bip(4'-COOH)][4Pal][Phe(4-COOH)]G[Pro(cis-4-F)][Trp(βS-Me,4-F)][Aib]EW[Aib][Ala(pyrimidin-5-yl)]Q[Dab]G[X33])), the IC50 was 0.024 nM.

For the compound `C[C@@H](c1c[nH]c2cccc(F)c12)[C@@H]1NC(=O)[C@@H]2C[C@H](F)CN2C(=O)CNC(=O)[C@H](Cc2ccc(C(=O)O)cc2)NC(=O)[C@H](Cc2ccncc2)NC(=O)[C@H](Cc2ccc(-c3ccc(C(=O)O)cc3)cc2)NC(=O)[C@H]2[C@@H](Cc3ccc(-c4cccnc4)cc3)CCN2C(=O)CNC(=O)[C@H](CCN)NC(=O)[C@H](CCC(N)=O)NC(=O)[C@H](Cc2cncnc2)NC(=O)C(C)(C)NC(=O)[C@H](Cc2c[nH]c3ccccc23)NC(=O)[C@H](CCC(=O)O)NC(=O)C(C)(C)NC1=O` [Example 56] (cyclo([Bip(4'-COOH)][4Pal][Phe(4-COOH)]G[Pro(cis-4-F)][Trp(βS-Me,4-F)][Aib]EW[Aib][Ala(pyrimidin-5-yl)]Q[Dab]G[X48])), the IC50 is 0.022 nM.

As for `C[C@@H](c1c[nH]c2cccc(F)c12)[C@@H]1NC(=O)[C@@H]2C[C@H](F)CN2C(=O)CNC(=O)[C@H](Cc2ccc(C(=O)O)cc2)NC(=O)[C@H](Cc2ccncc2)NC(=O)[C@H](Cc2ccc(-c3ccc(C(=O)O)cc3)cc2)NC(=O)[C@H]2[C@@H](Cc3ccc(-c4cnc(N)cn4)cc3)CCN2C(=O)CNC(=O)[C@H](CCN)NC(=O)[C@H](CCC(N)=O)NC(=O)[C@H](Cc2cncnc2)NC(=O)C(C)(C)NC(=O)[C@H](Cc2c[nH]c3ccccc23)NC(=O)[C@H](CCC(=O)O)NC(=O)C(C)(C)NC1=O` [Example 57] (cyclo([Bip(4'-COOH)][4Pal][Phe(4-COOH)]G[Pro(cis-4-F)][Trp(βS-Me,4-F)][Aib]EW[Aib][Ala(pyrimidin-5-yl)]Q[Dab]G[X49])), the IC50 worked out at 0.019 nM. To `C[C@@H](c1c[nH]c2cccc(F)c12)[C@@H]1NC(=O)[C@@H]2C[C@H](F)CN2C(=O)CNC(=O)[C@H](Cc2ccc(C(=O)O)cc2)NC(=O)[C@H](Cc2ccncc2)NC(=O)[C@H](Cc2ccc(-c3ccc(C(=O)O)cc3)cc2)NC(=O)[C@H]2[C@@H](Cc3ccc(-c4ccnnc4)cc3)CCN2C(=O)CNC(=O)[C@H](CCN)NC(=O)[C@H](CCC(N)=O)NC(=O)[C@H](Cc2cncnc2)NC(=O)C(C)(C)NC(=O)[C@H](Cc2c[nH]c3ccccc23)NC(=O)[C@H](CCC(=O)O)NC(=O)C(C)(C)NC1=O` [Example 58] (cyclo([Bip(4'-COOH)][4Pal][Phe(4-COOH)]G[Pro(cis-4-F)][Trp(βS-Me,4-F)][Aib]EW[Aib][Ala(pyrimidin-5-yl)]Q[Dab]G[X15])) belongs 0.037 nM. The result for `C[C@@H](c1c[nH]c2cccc(F)c12)[C@@H]1NC(=O)[C@@H]2C[C@H](F)CN2C(=O)CNC(=O)[C@H](Cc2ccc(C(=O)O)cc2)NC(=O)[C@H](Cc2ccncc2)NC(=O)[C@H](Cc2ccc(-c3ccc(C(=O)O)cc3)cc2)NC(=O)[C@H]2[C@@H](Cc3ccc(-c4cnc(N)nc4)cc3)CCN2C(=O)CNC(=O)[C@H](CCN)NC(=O)[C@H](CCC(N)=O)NC(=O)[C@H](Cc2cncnc2)NC(=O)C(C)(C)NC(=O)[C@H](Cc2c[nH]c3ccccc23)NC(=O)[C@H](CCC(=O)O)NC(=O)C(C)(C)NC1=O` [Example 59] (cyclo([Bip(4'-COOH)][4Pal][Phe(4-COOH)]G[Pro(cis-4-F)][Trp(βS-Me,4-F)][Aib]EW[Aib][Ala(pyrimidin-5-yl)]Q[Dab]G[X22])) reads 0.018 nM; that for `COc1ncc(-c2ccc(C[C@H]3CCN4C(=O)CNC(=O)[C@H](CCN)NC(=O)[C@H](CCC(N)=O)NC(=O)[C@H](Cc5cncnc5)NC(=O)C(C)(C)NC(=O)[C@H](Cc5c[nH]c6ccccc56)NC(=O)[C@H](CCC(=O)O)NC(=O)C(C)(C)NC(=O)[C@H]([C@@H](C)c5c[nH]c6cccc(F)c56)NC(=O)[C@@H]5C[C@H](F)CN5C(=O)CNC(=O)[C@H](Cc5ccc(C(=O)O)cc5)NC(=O)[C@H](Cc5ccncc5)NC(=O)[C@H](Cc5ccc(-c6ccc(C(=O)O)cc6)cc5)NC(=O)[C@@H]34)cc2)cn1` [Example 60] (cyclo([Bip(4'-COOH)][4Pal][Phe(4-COOH)]G[Pro(cis-4-F)][Trp(βS-Me,4-F)][Aib]EW[Aib][Ala(pyrimidin-5-yl)]Q[Dab]G[X1])), 0.018 nM; that for `C[C@@H](c1c[nH]c2cccc(F)c12)[C@@H]1NC(=O)[C@@H]2C[C@H](F)CN2C(=O)CNC(=O)[C@H](Cc2ccc(C(=O)O)cc2)NC(=O)[C@H](Cc2ccncc2)NC(=O)[C@H](Cc2ccc(-c3ccc(C(=O)O)cc3)cc2)NC(=O)[C@H]2[C@@H](Cc3ccc(-c4ccccn4)cc3)CCN2C(=O)CNC(=O)[C@H](CCN)NC(=O)[C@H](CCC(N)=O)NC(=O)[C@H](Cc2cncnc2)NC(=O)C(C)(C)NC(=O)[C@H](Cc2c[nH]c3ccccc23)NC(=O)[C@H](CCC(=O)O)NC(=O)C(C)(C)NC1=O` [Example 61] (cyclo([Bip(4'-COOH)][4Pal][Phe(4-COOH)]G[Pro(cis-4-F)][Trp(βS-Me,4-F)][Aib]EW[Aib][Ala(pyrimidin-5-yl)]Q[Dab]G[X8])), 0.022 nM. To `Cc1nocc1-c1ccc(C[C@H]2CCN3C(=O)CNC(=O)[C@H](CCN)NC(=O)[C@H](CCC(N)=O)NC(=O)[C@H](Cc4cncnc4)NC(=O)C(C)(C)NC(=O)[C@H](Cc4c[nH]c5ccccc45)NC(=O)[C@H](CCC(=O)O)NC(=O)C(C)(C)NC(=O)[C@H]([C@@H](C)c4c[nH]c5cccc(F)c45)NC(=O)[C@@H]4C[C@H](F)CN4C(=O)CNC(=O)[C@H](Cc4ccc(C(=O)O)cc4)NC(=O)[C@H](Cc4ccncc4)NC(=O)[C@H](Cc4ccc(-c5ccc(C(=O)O)cc5)cc4)NC(=O)[C@@H]23)cc1` [Example 62] (cyclo([Bip(4'-COOH)][4Pal][Phe(4-COOH)]G[Pro(cis-4-F)][Trp(βS-Me,4-F)][Aib]EW[Aib][Ala(pyrimidin-5-yl)]Q[Dab]G[X43])) belongs 0.021 nM; to `C[C@@H](c1c[nH]c2cccc(F)c12)[C@@H]1NC(=O)[C@@H]2C[C@H](F)CN2C(=O)CNC(=O)[C@H](Cc2ccc(C(=O)O)cc2)NC(=O)[C@H](Cc2ccncc2)NC(=O)[C@H](Cc2ccc(-c3ccc(C(=O)O)cc3)cc2)NC(=O)[C@H]2[C@@H](Cc3ccc(-c4nccn4C)cc3)CCN2C(=O)CNC(=O)[C@H](CCN)NC(=O)[C@H](CCC(N)=O)NC(=O)[C@H](Cc2cncnc2)NC(=O)C(C)(C)NC(=O)[C@H](Cc2c[nH]c3ccccc23)NC(=O)[C@H](CCC(=O)O)NC(=O)C(C)(C)NC1=O` [Example 63] (cyclo([Bip(4'-COOH)][4Pal][Phe(4-COOH)]G[Pro(cis-4-F)][Trp(βS-Me,4-F)][Aib]EW[Aib][Ala(pyrimidin-5-yl)]Q[Dab]G[X18])), 0.018 nM; to `C[C@@H](c1c[nH]c2cccc(F)c12)[C@@H]1NC(=O)[C@@H]2C[C@H](F)CN2C(=O)CNC(=O)[C@H](Cc2ccc(C(=O)O)cc2)NC(=O)[C@H](Cc2ccncc2)NC(=O)[C@H](Cc2ccc(-c3ccc(C(=O)O)cc3)cc2)NC(=O)[C@H]2[C@@H](Cc3ccc(-c4cn(C)cn4)cc3)CCN2C(=O)CNC(=O)[C@H](CCN)NC(=O)[C@H](CCC(N)=O)NC(=O)[C@H](Cc2cncnc2)NC(=O)C(C)(C)NC(=O)[C@H](Cc2c[nH]c3ccccc23)NC(=O)[C@H](CCC(=O)O)NC(=O)C(C)(C)NC1=O` [Example 64] (cyclo([Bip(4'-COOH)][4Pal][Phe(4-COOH)]G[Pro(cis-4-F)][Trp(βS-Me,4-F)][Aib]EW[Aib][Ala(pyrimidin-5-yl)]Q[Dab]G[X16])), 0.014 nM. For the compound `C[C@@H](c1c[nH]c2cccc(F)c12)[C@@H]1NC(=O)[C@@H]2C[C@H](F)CN2C(=O)CNC(=O)[C@H](Cc2ccc(C(=O)O)cc2)NC(=O)[C@H](Cc2ccncc2)NC(=O)[C@H](Cc2ccc(-c3ccc(C(=O)O)cc3)cc2)NC(=O)[C@H]2C[C@@H](Cc3ccc(F)cc3)CN2C(=O)CNC(=O)[C@H](CCN)NC(=O)[C@H](CCC(N)=O)NC(=O)[C@H](Cc2cncnc2)NC(=O)C2(CCNCC2)NC(=O)[C@H](Cc2c[nH]c3ccccc23)NC(=O)[C@H](CCC(=O)O)NC(=O)C(C)(C)NC1=O` [Example 65] (cyclo([Bip(4'-COOH)][4Pal][Phe(4-COOH)]G[Pro(cis-4-F)][Trp(βS-Me,4-F)][Aib]EW[Api][Ala(pyrimidin-5-yl)]Q[Dab]G[dPro(4R-Bzl(4-F))])), the IC50 turned out to be 0.025 nM.

For `C[C@@H](c1c[nH]c2cccc(F)c12)[C@@H]1NC(=O)[C@@H]2C[C@H](F)CN2C(=O)CNC(=O)[C@H](Cc2ccc(C(=O)O)cc2)NC(=O)[C@H](Cc2ccncc2)NC(=O)[C@H](Cc2ccc(-c3ccc(C(=O)O)cc3)cc2)NC(=O)[C@H]2C[C@@H](Cc3ccc(F)cc3)CN2C(=O)CNC(=O)[C@H](CCN)NC(=O)[C@H](CCC(N)=O)NC(=O)[C@H](Cc2cncnc2)NC(=O)C(C)(C)NC(=O)[C@H](Cc2c[nH]c3ccccc23)NC(=O)[C@H](CCC(=O)O)NC(=O)[C@](C)(CCCCN)NC1=O` [Example 66] (cyclo([Bip(4'-COOH)][4Pal][Phe(4-COOH)]G[Pro(cis-4-F)][Trp(βS-Me,4-F)][αMeK]EW[Aib][Ala(pyrimidin-5-yl)]Q[Dab]G[dPro(4R-Bzl(4-F))])), the IC50 was found to be 0.028 nM.

With `C[C@@H](c1c[nH]c2cccc(F)c12)[C@@H]1NC(=O)[C@@H]2C[C@H](F)CN2C(=O)CNC(=O)[C@H](Cc2ccc(C(=O)O)cc2)NC(=O)[C@H](Cc2ccncc2)NC(=O)[C@H](Cc2ccc(-c3ccc(C(=O)O)cc3)cc2)NC(=O)[C@H]2C[C@@H](Cc3ccc(F)cc3)CN2C(=O)CNC(=O)[C@H](CCN)NC(=O)[C@H](CCC(N)=O)NC(=O)[C@H](Cc2cncnc2)NC(=O)[C@](C)(CCCCN)NC(=O)[C@H](Cc2c[nH]c3ccccc23)NC(=O)[C@H](CCC(=O)O)NC(=O)C(C)(C)NC1=O` [Example 67] (cyclo([4Pal][Phe(4-COOH)]G[Pro(cis-4-F)][Trp(βS-Me,4-F)][Aib]EW[αMeK][Ala(pyrimidin-5-yl)]Q[Dab]G[dPro(4R-Bzl(4-F))][Bip(4'-COOH)])), the IC50 is 0.021 nM.
